Where two headings read alike, the source gives them in different places.
Key:
SKBR3 cells = experiment: SKBR3 Cell Viability Assay (CellTiter Glo); type: cell-based; conditions: CellTiter Glo luminescence, read-out: MCL-1 CV SKBR3 EC50
Method in brief: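 Viability read as CellTiter Glo luminescence after 72 h of compound exposure at 37° C./5% CO2, using 6,000 SKBR3 cells per well in McCoy 5A with 10% FBS. Percent inhibition scaled between DMSO wells and 10 μM puromycin wells.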

[1] = biological target: MCL-1/Bim interaction (recombinant human MCL-1 protein, residues 171-327; biotinylated human Bim peptide, residues 51-76) (Homo sapiens (Human), UniProt Q07820); experiment: MCL-1/Bim Binding AlphaLISA Assay; conditions: 0.0625 nM 6xHis-Mcl-1 (171-327), 0.0625 nM biotinylated-Bim peptide
MCL-1/Bim interaction (recombinant human MCL-1 protein, residues 171-327; biotinylated human Bim peptide, residues 51-76), sequence (Q07820 171-327): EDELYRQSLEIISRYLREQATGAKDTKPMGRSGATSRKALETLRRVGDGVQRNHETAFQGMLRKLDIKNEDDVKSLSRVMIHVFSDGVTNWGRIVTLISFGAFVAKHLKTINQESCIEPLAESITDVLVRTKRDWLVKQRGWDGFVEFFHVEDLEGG
Method in brief: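 Compounds first sat 1 h with MCL-1 (171-327, 0.0625 nM), followed by 2 h with biotin-Bim 51-76 (0.0625 nM), then sequential 1 h anti-His acceptor and streptavidin donor bead steps; buffer Hepes pH 7.5 with NaCl, Brij 35, DTT, BSA. AlphaScreen signal converted to % inhibition using DMSO (negative) and protein/peptide-free (positive) controls.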

| SMILES | EC50 (SKBR3 cells; Homo sapiens, SK-BR-3, 72 h) [nM] | IC50 [1] [nM] | EC50 (SKBR3 cells; 72 hours) [nM] |
| --- | --- | --- | --- |
| CO[C@H]1/C=C/C[C@H](C)C[S@@](=O)(NC(=O)c2cc3ccncn3c2)=NC(=O)c2ccc3c(c2)N(C[C@@H]2CC[C@H]21)C[C@@]1(CCCc2cc(Cl)ccc21)CO3 [Example 163] | 98.7 | 0.263 | – |
| CO[C@H]1/C=C/C[C@H](C)C[S@@](=O)(NC(=O)N2CC(C3COC3)C2)=NC(=O)c2ccc3c(c2)N(C[C@@H]2CC[C@H]21)C[C@@]1(CCCc2cc(Cl)ccc21)CO3 [Example 261] | 72 | 0.053 | – |
| CO[C@H]1/C=C/C[C@H](C)C[S@@](=O)(NC(=O)N2CC(F)(F)C2)=NC(=O)c2ccc3c(c2)N(C[C@@H]2CC[C@H]21)C[C@@]1(CCCc2cc(Cl)ccc21)CO3 [Example 323] | 170 | 0.158 | – |
| C[C@H]1C/C=C/[C@H](OCC2CC2)[C@@H]2CC[C@H]2CN2C[C@@]3(CCCc4cc(Cl)ccc43)COc3ccc(cc32)C(=O)N=[S@](=O)(NC(=O)c2cnn(C)c2)C1 [Example 410] | 146 | 0.194 | – |
| CO[C@H]1/C=C/C[C@H](C)C[S@@](=O)(NC(=O)N2CCN(CC#N)CC2)=NC(=O)c2ccc3c(c2)N(C[C@@H]2CC[C@H]21)C[C@@]1(CCCc2cc(Cl)ccc21)CO3 [Example 270] | 61.7 | 0.041 | – |
| CO[C@H]1/C=C/CCC[S@@](=O)(NC(=O)CCc2nccs2)=NC(=O)c2ccc3c(c2)N(C[C@@H]2CC[C@H]21)C[C@@]1(CCCc2cc(Cl)ccc21)CO3 [Example 91] | 616 | 0.1 | – |
| CO[C@H]1/C=C/C[C@H](C)C[S@@](=O)(NC(=O)N2CC(O)C2)=NC(=O)c2ccc3c(c2)N(C[C@@H]2CC[C@H]21)C[C@@]1(CCCc2cc(Cl)ccc21)CO3 [Example 289] | 588 | 0.053 | – |
| CO[C@H]1/C=C/C[C@H](C)C[S@@](=O)(NC(=O)N2C[C@@H](OC)[C@@H]2C)=NC(=O)c2ccc3c(c2)N(C[C@@H]2CC[C@H]21)C[C@@]1(CCCc2cc(Cl)ccc21)CO3 [Example 253] | 39.2 | 0.037 | – |
| CO[C@H]1/C=C/C[C@H](C)C[S@@](=O)(NC(=O)N2CC(CC(F)F)C2)=NC(=O)c2ccc3c(c2)N(C[C@@H]2CC[C@H]21)C[C@@]1(CCCc2cc(Cl)ccc21)CO3 [Example 355] | 67.4 | 0.062 | – |
| CO[C@H]1/C=C/C[C@H](C)C[S@@](=O)(NC(=O)Nc2ccnc(C)c2)=NC(=O)c2ccc3c(c2)N(C[C@@H]2CC[C@H]21)C[C@@]1(CCCc2cc(Cl)ccc21)CO3 [Example 443] | 162 | 0.187 | – |
| CO[C@H]1/C=C/C[C@H](C)C[S@@](=O)(NC(=O)N[C@H]2C[C@@H]2OC)=NC(=O)c2ccc3c(c2)N(C[C@@H]2CC[C@H]21)C[C@@]1(CCCc2cc(Cl)ccc21)CO3 (single isomer, unassigned) [Example 195] | – | 0.036 | 29.6 |
| CO[C@H]1/C=C/C[C@H](C)C[S@@](=O)(NC(=O)[C@H]2C[C@H](OC)C2)=NC(=O)c2ccc3c(c2)N(C[C@@H]2CC[C@H]21)C[C@@]1(CCCc2cc(Cl)ccc21)CO3 [Example 128] | 96.4 | 0.068 | – |
| CO[C@H]1/C=C/C[C@H](C)C[S@@](=O)(NC(=O)N2CCN(C(=O)OC(C)(C)C)[C@H](C)C2)=NC(=O)c2ccc3c(c2)N(C[C@@H]2CC[C@H]21)C[C@@]1(CCCc2cc(Cl)ccc21)CO3 [Example 382] | 562 | 1.4 | – |
| CO[C@H]1/C=C/C[C@H](C)C[S@@](=O)(NC(=O)NC2C[C@H]2C(F)F)=NC(=O)c2ccc3c(c2)N(C[C@@H]2CC[C@H]21)C[C@@]1(CCCc2cc(Cl)ccc21)CO3 (some centres unmarked) [Example 207] | 44 | 0.162 | – |
| CO[C@H]1/C=C/C[C@H](C)C[S@@](=O)(NC(=O)N2CC(OC3CC3)C2)=NC(=O)c2ccc3c(c2)N(C[C@@H]2CC[C@H]21)C[C@@]1(CCCc2cc(Cl)ccc21)CO3 [Example 263] | 62.2 | 0.073 | – |
| CO[C@H]1/C=C/CCC[S@@](=O)(NC(=O)CCC(F)(F)F)=NC(=O)c2ccc3c(c2)N(C[C@@H]2CC[C@H]21)C[C@@]1(CCCc2cc(Cl)ccc21)CO3 [Example 94] | 902 | 0.9 | – |
| CO[C@H]1/C=C/C[C@H](C)C[S@@](=O)(NC(=O)N[C@H]2C[C@@](C)(CO)C2)=NC(=O)c2ccc3c(c2)N(C[C@@H]2CC[C@H]21)C[C@@]1(CCCc2cc(Cl)ccc21)CO3 [Example 314] | 32.9 | 0.054 | – |
| CCn1nccc1CCC(=O)N[S@@]1(=O)=NC(=O)c2ccc3c(c2)N(C[C@@H]2CC[C@H]2[C@@H](OC)/C=C/CCC1)C[C@@]1(CCCc2cc(Cl)ccc21)CO3 [Example 45] | 191 | 0.1 | – |
| CO[C@H]1/C=C/C[C@H](C)C[S@@](=O)(NC(=O)N2CC3(CCO3)C2)=NC(=O)c2ccc3c(c2)N(C[C@@H]2CC[C@H]21)C[C@@]1(CCCc2cc(Cl)ccc21)CO3 [Example 230] | 47.1 | 0.027 | – |

| SMILES | EC50 (SKBR3 cells; Homo sapiens, SK-BR-3, 72 h) [nM] | IC50 [1] [nM] | EC50 (SKBR3 cells; 72 hours) [nM] |
| --- | --- | --- | --- |
| COc1nn(C)cc1C(=O)N[S@@]1(=O)=NC(=O)c2ccc3c(c2)N(C[C@@H]2CC[C@H]2[C@@H](OC(=O)CCN2CCOCC2)/C=C/C[C@H](C)C1)C[C@@]1(CCCc2cc(Cl)ccc21)CO3 [Example 300] | 26.8 | 0.026 | – |
| CO[C@H]1/C=C/C[C@H](C)C[S@@](=O)(NC(=O)c2cc3n(n2)CCOC3)=NC(=O)c2ccc3c(c2)N(C[C@@H]2CC[C@H]21)C[C@@]1(CCCc2cc(Cl)ccc21)CO3 [Example 424] | 147 | 0.037 | – |
| CO[C@H]1/C=C/C[C@H](C)C[S@@](=O)(NC(=O)N[C@H]2C[C@@]2(C)OC)=NC(=O)c2ccc3c(c2)N(C[C@@H]2CC[C@H]21)C[C@@]1(CCCc2cc(Cl)ccc21)CO3 (single isomer, unassigned) [Example 313] | 94.5 | 0.064 | – |
| CO[C@H]1/C=C/C[C@H](C)C[S@@](=O)(NC(=O)N2CC(OC(F)F)C2)=NC(=O)c2ccc3c(c2)N(C[C@@H]2CC[C@H]21)C[C@@]1(CCCc2cc(Cl)ccc21)CO3 [Example 354] | 36.9 | 0.039 | – |
| CO[C@H]1/C=C/CCC[S@@](=O)(NC(=O)CCn2ccc(C)n2)=NC(=O)c2ccc3c(c2)N(C[C@@H]2CC[C@H]21)C[C@@]1(CCCc2cc(Cl)ccc21)CO3 [Example 59] | 874 | 0.1 | – |
| COc1nn(C)cc1C(=O)N[S@@]1(=O)=NC(=O)c2ccc3c(c2)N(C[C@@H]2CC[C@H]2[C@@H](OC)/C=C/[C@H](Oc2cnccn2)[C@H](C)C1)C[C@@]1(CCCc2cc(Cl)ccc21)CO3 [Example 288] | 170 | 0.144 | – |
| COCC1(COC)Cn2cc(C(=O)N[S@@]3(=O)=NC(=O)c4ccc5c(c4)N(C[C@@H]4CC[C@H]4[C@@H](O)/C=C/C[C@H](C)[C@H]3C)C[C@@]3(CCCc4cc(Cl)ccc43)CO5)cc2CO1 [Example 331] | 68.9 | 0.075 | – |
| CO[C@H]1/C=C/CCC[S@@](=O)(NC(=O)CCn2cc(Cl)cn2)=NC(=O)c2ccc3c(c2)N(C[C@@H]2CC[C@H]21)C[C@@]1(CCCc2cc(Cl)ccc21)CO3 [Example 55] | 685 | 0.2 | – |
| CCn1ncc(C(=O)N[S@@]2(=O)=NC(=O)c3ccc4c(c3)N(C[C@@H]3CC[C@H]3[C@@H](OC)/C=C/C[C@H](C)C2)C[C@@]2(CCCc3cc(Cl)ccc32)CO4)n1 [Example 422] | 187 | 0.035 | – |
| CO[C@H]1/C=C/C[C@H](C)C[S@@](=O)(NC(=O)c2cnsc2)=NC(=O)c2ccc3c(c2)N(C[C@@H]2CC[C@H]21)C[C@@]1(CCCc2cc(Cl)ccc21)CO3 [Example 411] | 175 | 0.178 | – |
| COc1nn(C)cc1C(=O)N[S@@]1(=O)=NC(=O)c2ccc3c(c2)N(C[C@@H]2CC[C@H]2[C@@H](OC)/C=C\C[C@H](C)C1)C[C@@]1(CCCc2cc(Cl)ccc21)CO3 [Example 228] | 69.9 | 0.069 | – |
| CO[C@H]1/C=C/CCC[S@@](=O)(NC(=O)COC2CCOCC2)=NC(=O)c2ccc3c(c2)N(C[C@@H]2CC[C@H]21)C[C@@]1(CCCc2cc(Cl)ccc21)CO3 [Example 105] | 351 | 0.1 | – |
| CO[C@H]1/C=C/C[C@H](C)C[S@@](=O)(NC(=O)NC23COC(C)(C2)C3)=NC(=O)c2ccc3c(c2)N(C[C@@H]2CC[C@H]21)C[C@@]1(CCCc2cc(Cl)ccc21)CO3 [Example 340] | 37.1 | 0.031 | – |
| CO[C@H]1/C=C/C[C@H](C)C[S@@](=O)(NC(=O)c2cc3c([nH]2)CCOC3)=NC(=O)c2ccc3c(c2)N(C[C@@H]2CC[C@H]21)C[C@@]1(CCCc2cc(Cl)ccc21)CO3 [Example 158] | 47.4 | 0.135 | – |
| COC[C@@H]1CN(C(=O)N[S@@]2(=O)=NC(=O)c3ccc4c(c3)N(C[C@@H]3CC[C@H]3[C@@H](OC)/C=C/C[C@H](C)C2)C[C@@]2(CCCc3cc(Cl)ccc32)CO4)CCO1 [Example 232] | 243 | 0.052 | – |
| CO[C@H]1/C=C/C[C@H](C)C[S@@](=O)(NC(=O)c2cc3n(c2)CC=C3)=NC(=O)c2ccc3c(c2)N(C[C@@H]2CC[C@H]21)C[C@@]1(CCCc2cc(Cl)ccc21)CO3 [Example 135] | 132 | 0.213 | – |
| COC1CN(C(=O)N[S@@]2(=O)=NC(=O)c3ccc4c(c3)N(C[C@@H]3CC[C@H]3[C@@H](OC)/C=C/[C@H](OC)[C@H](C)C2)C[C@@]2(CCCc3cc(Cl)ccc32)CO4)C1 [Example 375] | 22.4 | 0.046 | – |
| CO[C@H]1/C=C/C[C@H](C)C[S@@](=O)(NC(=O)N2CC(OC)(C(F)(F)F)C2)=NC(=O)c2ccc3c(c2)N(C[C@@H]2CC[C@H]21)C[C@@]1(CCCc2cc(Cl)ccc21)CO3 [Example 246] | 176 | 0.096 | – |

Reference: US10703733B2, “MCL-1 inhibitors” (Gilead Sciences, Inc., priority 2018, dated 2020)
